Target: T1, Substance-K receptor (Homo sapiens, UniProt P21452)
T1 sequence (P21452 whole entry): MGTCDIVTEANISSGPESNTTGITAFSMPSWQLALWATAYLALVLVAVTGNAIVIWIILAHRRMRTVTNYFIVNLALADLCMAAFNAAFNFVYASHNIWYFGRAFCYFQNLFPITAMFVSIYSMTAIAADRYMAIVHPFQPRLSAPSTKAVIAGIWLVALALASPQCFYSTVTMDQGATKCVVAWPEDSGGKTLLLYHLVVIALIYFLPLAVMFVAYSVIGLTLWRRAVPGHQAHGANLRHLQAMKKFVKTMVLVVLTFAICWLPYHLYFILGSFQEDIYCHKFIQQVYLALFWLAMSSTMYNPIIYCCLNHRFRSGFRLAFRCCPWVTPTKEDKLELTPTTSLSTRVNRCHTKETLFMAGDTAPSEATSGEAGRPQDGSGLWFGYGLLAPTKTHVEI
Experiment: Binding affinity was determined against human NK2 receptor in CHO cells using [125I]neurokinin A as radioligand
Type: cell-based

Row | Compound | IC50 [nM]
1 | CN(CC(CCN1CCC(O)(c2ccccc2)CC1)c1ccc(Cl)c(Cl)c1)C(=O)c1cccc(C2(C(F)(F)F)N=N2)c1 (racemic) | 6.7
2 | CC(=O)NC1(c2ccccc2)CCN(CC[C@H](CN(C)C(=O)c2ccccc2)c2ccc(Cl)c(Cl)c2)CC1 (racemic) [SAREDUTANT] | 0.8

— ChEMBL document CHEMBL1128992, “A Non-peptidic photoactivatable antagonist for mapping the antagonist binding site of the tachykinin NK2 receptor” (Bioorg Med Chem Lett, 1996)
